# Reference: ChEMBL document CHEMBL1141823, “Malayenolides A-D, novel diterpenes from the indonesian sea pen veretillum malayense” (J Nat Prod, 1999)
# Test: Toxicity against brine shrimp
# Format: organism-based
# Conditions: artemia, in vivo
row,Structure (SMILES),LC50 [µg/mL]
1,CC(=O)O[C@H]1CC=C(C)[C@@H]2CC3=C(C)C(=O)O[C@H]3/C=C(/C)CC[C@H](OC(=O)c3ccccc3)[C@@]12C [MALAYENOLIDE A],100
2,CC(=O)O[C@H]1C[C@@H]2O[C@]2(C)[C@@H]2CC3=C(C)C(=O)O[C@H]3/C=C(/C)CC[C@H](OC(=O)c3ccccc3)[C@@]12C [MALAYENOLIDE B],< 2
3,CC(=O)O[C@H]1CC=C(C)[C@@H]2CC3=C(C)C(=O)O[C@H]3/C=C(/C)CC[C@H](OC(=O)C=C(C)C)[C@@]12C [MALAYENOLIDE C],20
4,CC(=O)O[C@H]1C[C@@H]2O[C@]2(C)[C@@H]2CC3=C(C)C(=O)O[C@H]3/C=C(/C)CC[C@H](OC(=O)C=C(C)C)[C@@]12C [MALAYENOLIDE D],20
